Tested on: adjuvant-induced arthritis in rats
Assay: adjuvant-induced arthritis in rats, per cent inhibition of paw swelling
Format: in vivo, rat
Settings: 0.5 mg/kg s.c. daily for sixteen days, male rats
Excerpt: In using the compounds of the invention to produce antiinflammatory effects in warm-blooded animals, they may be administered subcutaneously. The particular dosage to obtain the antiinflammatory effect will vary with the particular compound employed and the degree of antiinflammatory response desired. The antiinflammatory response produced upon subcutaneous administration can be observed by the method described by Newbould, B. B. in Brit. J. Pharm. Chemoth., 21, 127 (1963) and Rosenthale, M. E., and Nagra, C. L. in Proc. Soc. Exp. Biol. and Med., 125, 149 (1967). In this procedure, adjuvant-induced arthritis is induced in rats by injection of dead mycobacteria into the hind footpad. The test compound is administered subcutaneously daily for sixteen consecutive days beginning with the day of injection. The injected foot swells rapidly during the first 4 to 6 days. Thereafter, the swelling subsides until the 8th day, and then it resumes. About 4 to 10 days after injection, the other hind paw (un-injected) becomes swollen and other inflammatory nodules may be found in the ear and tail. The swelling of the injected paw at day 4 is taken as an indication of an acute inflammatory response. The swelling of the same paw at day 16 is taken as a delayed inflammatory response. The swelling of the other hind paw at day 16 is taken as a delayed hypersensitivity reaction. Active antiinflammatory compounds reduce the swelling in either the acute and/or the delayed phases. […] The percent protection against swelling, as compared to non-treated controls, is calculated and is used as a measure of antiinflammatory activity.
Male rats are randomly dispersed into groups. […] On day 4, the volume of the injected (right) foot is measured by means of a mercury plethysmograph. On day 16, the volumes of both the injected, right foot and the left hind foot are measured. The ability of the test compound to protect against acute and delayed swelling is measured by calculating the per cent decrease in volume of the test animals as compared to controls. […]

SMILES: CCCCCC(C)(O)/C=C/[C@H]1[C@H](C#N)CC(O)[C@@H]1CCCCCCC(=O)O (stereo partly drawn) [3α-cyano-5(RS)-hydroxy-2β-[(3RS)-3-hydroxy-3-methyl-trans-1-octenyl]-1α-cyclopentaneheptanoic acid]
- % Inhibition of Swelling, Day 4, Rt. Paw (injected right paw, day 4 (acute)): 25%
- % Inhibition of Swelling, Day 16, Rt. Paw (injected right paw, day 16 (delayed)): 31%
- % Inhibition of Swelling, Day 16, Left Paw (un-injected left paw, day 16 (delayed hypersensitivity)): 35%

From US3975421A, “15-Substituted 11α-cyano-prostaglandins and related compounds” (American Home Products Corporation, priority 1974, dated 1976)
